Reference: patent US20240150423A1, “GLP-1 ANALOGUE-MODIFIED DIMERS WITH DIFFERENT CONFIGURATIONS, PREPARATION METHOD THEREOF, AND APPLICATION THEREOF IN TREATMENT OF TYPE II DIABETES” (Nanjing Finepeptide Biopharmaceutical Co.,Ltd, priority 2019, published 2024)
Non-standard residues stand in square brackets, D forms with d. No end group written: not given here. Aib = CC(C)(N)C(=O)O

test system: Normal Kunming (KM) mice; assay: multiple OGTT (mOGTT): hypoglycemic duration after a single administration; assay type: in vivo; settings: monomeric peptides, single injection at the same dose (1.126 nmol), subcutaneous
Summary of the method: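 Tail blood glucose was followed by meter in normal KM mice after one dosing and glucose gavage, at 0, 10, 20, 40, 60 and 120 min. Measurement stopped when the treated mean rose above the NaCl group twice; the period before that is the effective duration.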

| Substance | Hypoglycemic |
| --- | --- |
| His-Ala-Glu-Gly-Thr-Phe-Thr-Ser-Asp-Val-Ser-Cys-Tyr-Leu-Glu-Gly-Gln-Ala-Ala-Lys[N-ϵ-(N-α-Palmitoyl-L-γ-glutamyl)]-Glu-Phe-Ile-Ala-Trp-Leu-Val-Lys[N-ϵ-(N-α-Palmitoyl-L-γ-glutamyl)]-Gly-Arg-Gly-NH2 (HAEGTFTSDVSCYLEGQAAXEFIAWLVXGRG; two palmitoyl-gamma-Glu on Lys; C-terminal amide; Sequence is synthesized; (20)..(20) Xaa is 26Lys[N-e-(N-a-palmitoyl-L-g-glutamyl)]; (28)..(28) Xaa is 26Lys[N-e-(N-a-palmitoyl-L-g-glutamyl)]; (31)..(31) N-terminal) [G5 series 41] | 3 days |
| His-βAib-Glu-Gly-Thr-Phe-Thr-Ser-Asp-Val-Ser-Cys-Tyr-Leu-Glu-Gly-Gln-Ala-Ala-Lys[N-ϵ-(N-α-oleoyl)]-Glu-Phe-Ile-Ala-Trp-Leu-Val-Arg-Gly-Arg-Gly-NH2 (HXEGTFTSDVSCYLEGQAAXEFIAWLVRGRG; not fully specified; beta-Aib; oleoyl on Lys side chain; C-terminal amide; Sequence is synthesized; (2)..(2) Xaa is bAib; (20)..(20) Xaa is 26Lys[N-e-(N-a-oleoyl-L-g-glutamyl)]; (31)..(31) N-terminal) [G4 series 38] | 6 days |
| His-Ala-Glu-Gly-Thr-Phe-Thr-Ser-Asp-Val-Ser-Cys-Tyr-Leu-Glu-Gly-Gln-Ala-Ala-Lys[N-ϵ-(N-α-Palmitoyl)]-Glu-Phe-Ile-Ala-Trp-Leu-Val-Arg-Gly-Arg-Gly-NH2 (HAEGTFTSDVSCYLEGQAAXEFIAWLVRGRG; palmitoyl on Lys side chain; C-terminal amide; Sequence is synthesized; (20)..(20) Xaa is 26Lys[N-e-(N-a-palmitoyl-L-g-glutamyl)]; (31)..(31) N-terminal) [G4 series 35] | 6 days |
| His-aAib-Glu-Gly-Thr-Phe-Thr-Cys-Asp-Val-Ser-Ser-Tyr-Leu-Glu-Gly-Gln-Ala-Ala-Lys-Glu-Phe-Ile-Ala-Trp-Leu-Val-Arg-aAib-Arg-NH2 (H[Aib]EGTFTCDVSSYLEGQAAKEFIAWLVR[Aib]R-NH2; N-terminus assumed; SMILES CC[C@H](C)[C@H](NC(=O)[C@H](Cc1ccccc1)NC(=O)[C@H](CCC(=O)O)NC(=O)[C@H](CCCCN)NC(=O)[C@H](C)NC(=O)[C@H](C)NC(=O)[C@H](CCC(N)=O)NC(=O)CNC(=O)[C@H](CCC(=O)O)NC(=O)[C@H](CC(C)C)NC(=O)[C@H](Cc1ccc(O)cc1)NC(=O)[C@H](CO)NC(=O)[C@H](CO)NC(=O)[C@@H](NC(=O)[C@H](CC(=O)O)NC(=O)[C@H](CS)NC(=O)[C@@H](NC(=O)[C@H](Cc1ccccc1)NC(=O)[C@@H](NC(=O)CNC(=O)[C@H](CCC(=O)O)NC(=O)C(C)(C)NC(=O)[C@@H](N)Cc1c[nH]cn1)[C@@H](C)O)[C@@H](C)O)C(C)C)C(=O)N[C@@H](C)C(=O)N[C@@H](Cc1c[nH]c2ccccc12)C(=O)N[C@@H](CC(C)C)C(=O)N[C@H](C(=O)N[C@@H](CCCNC(=N)N)C(=O)NC(C)(C)C(=O)N[C@@H](CCCNC(=N)N)C(N)=O)C(C)C) [G8 series 64] | 2 days |
| His-Ala-Glu-Gly-Thr-Phe-Thr-Ser-Asp-Val-Cys-Ser-Tyr-Leu-Glu-Gly-Gln-Ala-Ala-Lys[N-ϵ-(N-α-oleoyl)]-Glu-Phe-Ile-Ala-Trp-Leu-Val-Arg-Gly-Arg-Gly-OH (HAEGTFTSDVCSYLEGQAAXEFIAWLVRGRG; oleoyl on Lys; C-terminal acid; Sequence is synthesized; (20)..(20) Xaa is 26Lys[N-e-(N-a-oleoyl-L-g-glutamyl)]; (31)..(31) C-terminal) [G4 series 26] | 4 days |
| His-Ala-Glu-Gly-Thr-Phe-Thr-Ser-Asp-Val-Cys-Ser-Tyr-Leu-Glu-Gly-Gln-Ala-Ala-Lys[N-ϵ-(N-α-oleoyl-L-γ-glutamyl)]-Glu-Phe-Ile-Ala-Trp-Leu-Val-Arg-Gly-Arg-Gly-NH2 (HAEGTFTSDVCSYLEGQAAXEFIAWLVRGRG; oleoyl-γ-glutamyl on Lys; C-terminal amide; Sequence is synthesized; (20)..(20) Xaa is 26Lys[N-e-(N-a-oleoyl-L-g-glutamyl)]; (31)..(31) N-terminal) [G2 series 10] | 5 days |
| His-βAla-Glu-Gly-Thr-Phe-Thr-Ser-Asp-Val-Cys-Ser-Tyr-Leu-Glu-Gly-Gln-Ala-Ala-Lys[N-ϵ-(N-α-oleoyl-L-γ-glutamyl)]-Glu-Phe-Ile-Ala-Trp-Leu-Val-Arg-Gly-Arg-Gly-NH2 (HXEGTFTSDVCSYLEGQAAXEFIAWLVRGRG; β-amino acid; oleoyl-γ-glutamyl on Lys; C-terminal amide; Sequence is synthesized; (2)..(2) Xaa is bAla; (20)..(20) Xaa is 26Lys[N-e-(N-a-oleoyl-L-g-glutamyl)]; (31)..(31) N-terminal) [G2 series 18] | 5 days |
| His-Ala-Glu-Gly-Thr-Phe-Thr-Ser-Asp-Val-Cys-Ser-Tyr-Leu-Glu-Gly-Gln-Ala-Ala-Lys[N-ϵ-(N-α-Palmitoyl-L-γ-glutamyl)]-Glu-Phe-Ile-Ala-Trp-Leu-Val-Arg-Gly-Arg-Gly-NH2 (HAEGTFTSDVCSYLEGQAAXEFIAWLVRGRG; palmitoyl-γ-glutamyl on Lys; C-terminal amide; Sequence is synthesized; (20)..(20) Xaa is Xaa is 26Lys[N-e-(N-a-Palmitoyl-g-glutamyl)]; (31)..(31) N-terminal) [G2 series 8] | 5 days |
| His-βAib-Glu-Gly-Thr-Phe-Thr-Ser-Asp-Val-Cys-Ser-Tyr-Leu-Glu-Gly-Gln-Ala-Ala-Lys[N-ϵ-(N-α-oleoyl)]-Glu-Phe-Ile-Ala-Trp-Leu-Val-Arg-Gly-Arg-Gly-NH2 (HXEGTFTSDVCSYLEGQAAXEFIAWLVRGRG; βAib; oleoyl on Lys; C-terminal amide; Sequence is synthesized; (2)..(2) Xaa is bAib; (20)..(20) Xaa is 26Lys[N-e-(N-a-oleoyl-L-g-glutamyl)]; (31)..(31) N-terminal) [G4 series 30] | 6 days |
| His-aAib-Glu-Gly-Thr-Phe-Thr-Ser-Asp-Val-Ser-Cys-Tyr-Leu-Glu-Gly-Gln-Ala-Ala-Lys-Glu-Phe-Ile-Ala-Trp-Leu-Val-Arg-aAib-Arg-OH (H[Aib]EGTFTSDVSCYLEGQAAKEFIAWLVR[Aib]R-OH; also: disulfide-linked homodimer via Cys) [G7 series 52] | 1 days |
| His-Ala-Glu-Gly-Thr-Phe-Thr-Ser-Asp-Val-Ser-Cys-Tyr-Leu-Glu-Gly-Gln-Ala-Ala-Lys[N-ϵ-(N-α-Palmitoyl-L-γ-glutamyl)]-Glu-Phe-Ile-Ala-Trp-Leu-Val-Arg-Gly-Arg-Gly-NH2 (HAEGTFTSDVSCYLEGQAAXEFIAWLVRGRG; palmitoyl-γ-glutamyl on Lys; C-terminal amide; Sequence is synthesized; (20)..(20) Xaa is 26Lys[N-e-(N-a-palmitoyl-L-g-glutamyl)]; (31)..(31) N-terminal) [G3 series 22] | 6 days |
| His-Ala-Glu-Gly-Thr-Phe-Thr-Ser-Asp-Val-Ser-Cys-Tyr-Leu-Glu-Gly-Gln-Ala-Ala-Lys[N-ϵ-(N-α-Palmitoyl-L-γ-glutamyl)]-Glu-Phe-Ile-Ala-Trp-Leu-Val-Lys[N-ϵ-(N-α-Palmitoyl-L-γ-glutamyl)]-Gly-Arg-Gly-OH (HAEGTFTSDVSCYLEGQAAXEFIAWLVXGRG; two palmitoyl-gamma-Glu on Lys; C-terminal acid; Sequence is synthesized; (20)..(20) Xaa is 26Lys[N-e-(N-a-palmitoyl-L-g-glutamyl)]; (28)..(28) Xaa is 26Lys[N-e-(N-a-palmitoyl-L-g-glutamyl)]; (31)..(31) C-terminal) [G5 series 40] | 1 days |

same assay, conditions: single injection at the same dose (1.126 nmol), subcutaneous

| Substance | Hypoglycemic duration (days) | Hypoglycemic duration |
| --- | --- | --- |
| 2G5 series 40: disulfide-linked homodimer of monomer SEQ ID NO: 40 (HAEGTFTSDVSCYLEGQAAXEFIAWLVXGRG; disulfide-linked homodimer; Sequence is synthesized; (20)..(20) Xaa is 26Lys[N-e-(N-a-palmitoyl-L-g-glutamyl)]; (28)..(28) Xaa is 26Lys[N-e-(N-a-palmitoyl-L-g-glutamyl)]; (31)..(31) C-terminal) | 3 (2G5 peptide) days | – |
| 2G3 series 21: disulfide-linked homodimer of monomer SEQ ID NO: 21 (HAEGTFTSDVSCYLEGQAAXEFIAWLVRGRG; disulfide-linked homodimer; Sequence is synthesized; (20)..(20) Xaa is 26Lys[N-e-(N-a-oleoyl-L-g-glutamyl)]; (31)..(31) C-terminal) | – | 14 days |
| 2G8 series 56: disulfide-linked homodimer of monomer SEQ ID NO: 56 (HAEGTFTCDVSSYLEGQAAXEFIAWLVRGRG; disulfide-linked homodimer; Sequence is synthesized; (20)..(20) Xaa is 26Lys[N-e-(N-a-palmitoyl-L-g-glutamyl)]; (31)..(31) C-terminal) | – | 2 days |
| 2G5 series 41: disulfide-linked homodimer of monomer SEQ ID NO: 41 (HAEGTFTSDVSCYLEGQAAXEFIAWLVXGRG; disulfide-linked homodimer; Sequence is synthesized; (20)..(20) Xaa is 26Lys[N-e-(N-a-palmitoyl-L-g-glutamyl)]; (28)..(28) Xaa is 26Lys[N-e-(N-a-palmitoyl-L-g-glutamyl)]; (31)..(31) N-terminal) | – | 5 days |
| 2G5 series 43: disulfide-linked homodimer of monomer SEQ ID NO: 43 (HXEGTFTSDVSCYLEGQAAXEFIAWLVXGRG; disulfide-linked homodimer; Sequence is synthesized; (2)..(2) Xaa is bAib; (20)..(20) Xaa is 26Lys[N-e-(N-a-palmitoyl-L-g-glutamyl)]; (28)..(28) Xaa is 26Lys[N-e-(N-a-palmitoyl-L-g-glutamyl)]; (31)..(31) N-terminal) | – | 7 days |
